From a melting point compilation (Tetko et al.; mined from patent text by program, amines drawn as free bases though some values may be those of a salt)

SMILES | melting point [°C]
COC(=O)c1cc2c(C)ccc(C)c2n1C(=O)OC | 75 to 80
CCOC(=O)Cc1c(C(=O)OCC)cnc2c(NC(=O)c3c(Cl)cccc3Cl)cccc12 | 159
CC(C)(O)c1ccc(Cl)c2nc3n(c12)CCCN3c1ccc(Cl)cc1Cl | 216 to 218
NC(=O)C[C@H](NS(=O)(=O)c1ccc2c(c1)Sc1ccccc1O2)C(=O)O | 165 to 175
CCOC(=O)C1COc2cc(OC(C)=O)ccc2O1 (stereo not given) | 66
CN(C)C(=NC(=O)C(O)(C(N)=O)c1ccc(Cl)c(Cl)c1)N(C)C (stereo not given) | 98 to 100
Clc1cc(I)ccc1CBr | 44 to 45.5
CN1Cc2c(-c3noc(CN)n3)ncn2-c2ccsc2C1=O | 202 to 204
COc1ccc(C(OCC2OC(n3cc(C)c(=O)[nH]c3=O)CC2O[Si](C)(C)C(C)(C)C)(c2ccccc2)c2ccc(OC)cc2)cc1 (stereo not given) | 214
O=C(O)c1cc2c3c(ccc2[nH]1)OC[C@H](CO)O3 | 216 to 217
Cc1cc(Br)cc(/C=N/O)c1F | 126 to 127
Cc1ccc(-c2ccc(C(=O)Nc3cc4ncc(CN5CCCC5)cc4cc3F)c(F)c2)cc1 | 179 to 181
CC(C)(C)OC(=O)N[C@@H](Cc1ccc(-c2ccccc2)cc1)C(=O)O | 122 to 123
Cc1nc2cc(Nc3ncc4ccc(-c5cccc(S(=O)(=O)NC(C)(C)C)c5)n4n3)ccc2o1 | 212 to 214
COc1cc(OC)nc(NC(=O)NS(=O)(=O)c2ccccc2S(N)(=O)=O)n1 | 192 to 193
CC1CCN(c2occ(C(C)(C)C)c2C#N)C1=O (stereo not given) | 88 to 90
CC(c1oc2ccccc2c(=O)c1-c1cccc(F)c1)n1nc(-c2cn[nH]c2)c2c(N)ncnc21 (stereo not given) | 223 to 226
CCOC(=O)OC1CCN(C(=O)OCC)Cc2cc3ccccc3nc21 (stereo not given) | < 40
COc1ccc(C2(C=O)C=CC=CC2)cc1OCCCC1(c2noc3cc(F)ccc23)CCNCC1 (stereo not given) | 140 to 141
CS(=O)(=O)c1ccc(Oc2ccc(SC(F)(F)F)cc2)nc1 | 134 to 135

SMILES | melting point [°C]
Cc1nc(-c2ccccn2)c2nc(-c3ccccc3)cc-2[nH]1 | 182 to 183
O=c1c2c(CCC(F)(F)F)n[nH]c2c2cccnc2n1-c1ccccc1 | 272 to 274
COC(=O)c1cc(=O)c2oc3ccccc3c(=O)c2[nH]1 | 244 to 245
O=C(Nc1cccc(Nc2ccc3c(c2)NC(=O)C3=Cc2ccc[nH]2)c1)Nc1cc(F)c(F)cc1F | 224 to 226
CCCCOc1cc(C=O)c([N+](=O)[O-])cc1OCc1ccccc1 | 94
Cc1ccc2c(c1)c(Cl)c(C#N)c(=O)n2Cc1ccc(F)cc1 | 206
CN1C(=O)CCC1c1cncc(Br)c1 (stereo not given) | 85 to 87
CCn1nc2c(N)nc3cnccc3c2c1CC(C)(C)C | > 260
NNc1cccc(-c2ccccn2)n1 | 69 to 70
Cc1oc(-c2ccc(Cl)cc2)nc1COc1cccc(CN(O)C(N)=O)c1 | 125 to 127
Cn1ncc(-c2ccc(O)cc2)cc1=O | 296 to 298
CCOP(=O)(Cc1cc(C2CCCCC2)c(O)c(C2CCCCC2)c1)OCC | 120
CCN(CC)CCCC1CCCCN1C(=O)N1c2ccccc2C(=O)Nc2cccnc21 (stereo not given) | 125 to 128
CC(=O)OC(c1ccc(C(F)(F)F)cc1[N+](=O)[O-])c1cnoc1C1CC1 (stereo not given) | 82
CC=C1CCC2C3CC=C4CC(O[Si](CC)(CC)CC)CC(O[Si](CC)(CC)CC)C4(C)C3CCC12C (stereo not given) | 81 to 82
NC(=O)N(O)Cc1ccc(Oc2ccc(-n3ccnc3)cc2)s1 | 141
COCCCNS(=O)(=O)NC(=O)OC/C=C/c1ccc(OCCOC)cc1Oc1ncc(C(F)(F)F)cc1Cl | 98 to 100
CCN(CC)CCNC(=O)c1cc(I)cc2c(F)ccnc12 | 79 to 81
Nc1c(O)cc2c(c1[N+](=O)[O-])CCC2 | 196 to 198

Now from value to compound:

melting point [°C] | SMILES
159 to 160 | CC(C)(C)NC(=O)[C@@H]1C[C@H](Br)CN1C(=O)OC(C)(C)C
157 | Cc1ccc(C(C)NC(=O)C2CC(=O)c3cc(F)ccc3O2)cc1 (single isomer, unassigned; (+))
178 | Cn1c(=O)c2c(nc(Cl)n2Cc2ccccc2I)n(C)c1=O
210 to 212 | Oc1c2c(c(O)c3ccccc13)CCCC2
132 to 133 | CCN(CC)CCCCNc1ncc2c(n1)N(C1CCCC1)C(=O)N(c1c(F)c(OC)cc(OC)c1F)C2
67 to 70 | CCOC(=O)c1sc2c(Br)cccc2c1C
243 to 244 | NC(=O)c1ccc2c(c1)C(=O)C1(CC1)O2
116 to 118 | COS(=O)(=O)c1cc(C(C)(C)C)c(O)c(C(C)(C)C)c1
162 to 164 | COc1ccc2cc(CCc3ccc(OCC(O)CNC(C)C)c(OC)c3)n(C)c(=O)c2c1 (stereo not given)
131 | CCNc1nc(Br)cn2c(Br)cnc12
155 to 157 | COCC(=O)Nc1c(C(=O)c2cccc(C)c2)[nH]c2cc(Cl)ccc12
203 to 204 | CC(=O)OCC(=O)C1(O)CCC2C3CCC4=CC(=O)C=CC4(C)C3(F)C(O[Si](C)(C)C)CC21C (stereo not given)
172 | CC(C)Nc1nc(N)c(C(=O)N=CNNS(=O)(=O)N(C)C)nc1Cl
240 to 242 | CN(C)Cc1ccc2cc(C(=O)Nc3ccc(-c4ccc(Cl)cc4)cc3)ccc2c1
103 to 105 | CCCCCCOc1ccc(-c2ccc(OCCCCCCBr)cc2)cc1
191 to 201 | CC(C)N1C(=O)C2CC(c3ccc(N)cc3)(C2)C1=O

melting point [°C] | SMILES
134 | O=C(c1ccc(F)cc1)N1CCc2cc(S(=O)(=O)N3CC(c4ccccc4)NC3=O)ccc21 (stereo not given)
136 to 139 | Cc1cc(C)c(N2C(=O)C(C)Cc3c(Cl)nc(C)nc32)c(C)c1 (stereo not given)
243 to 245 | COc1ccc(C2Sc3ccccc3N(CC(N)=O)C(=O)C2NC(=O)c2ccc3ccccc3c2)cc1 (stereo not given)
220 to 222 | O=C1CC(c2cccc(-n3ccnc3)c2)=Nc2cc(OCCO)c(C#Cc3ccc(F)cc3)cc2N1
92 to 92.5 | CCOC(=O)/C=C/c1ccc(OCCOC)c(C)c1OCc1ccc(Cl)cc1Cl
157 to 160 | COc1cccc(NC(=O)NCc2ccc(Nc3n[nH]c4ncnc(Nc5cccc(Cl)c5)c34)cc2)c1
186 to 187 | Cc1c(NC(=O)CC(C)(C)C)cc2c(c1C)OC(C)(C)C2Cc1ccccc1 (stereo not given)
> 300 | Cn1cncc1C(O)(c1ccc(Cl)cc1)c1ccc2c(c1)C(c1cccc(Cl)c1)OCC(=S)N2 (stereo not given)
191 to 193 | N#Cc1ccc([C@@H]2[C@@H]3C(=O)N(Cc4ccccc4)C(=O)[C@@H]3[C@H]3CCCN32)cc1 (racemic)
66 to 68 | O=[N+]([O-])c1ccc(CSc2ccc(Cl)cc2)cc1
117 to 119 | COc1nc(C(F)(F)F)cc(=O)n1-c1cc(OC(C)C)c(Cl)cc1F
148 | N#CC1=C(c2ccccc2)Nc2n[nH]cc2C1c1ccccc1C#N (stereo not given)
> 210 | N#Cc1c(N)[nH]c(Br)c1C#N
115 to 116 | OCc1cnc(-c2ccc(Cl)cc2)o1
178 to 182 | CSc1cc(N)ccc1[N+](=O)[O-]
